Measurements from patent US12011502B2, “Compositions and methods of administering baclofen” (AMNEAL PHARMACEUTICALS LLC, priority 2021, dated 2024).

How the values were obtained:
[1] = reported in the literature; cited from earlier work
[2] = limited evaluation, literature; cited from earlier work
[3] = Solubility of baclofen in solutions comprising sulfate or phosphate; type: physicochemical
Protocol: A concentration of 8.8 mg/mL sodium chloride is considered isotonic and therefore desirable as being physiologically acceptable.

solubility of baclofen ([3]; in solutions comprising sulfate or phosphate)	concentration of baclofen that can be dissolved ([3]; solutions containing phosphate, sulfate, potassium, sodium, or magnesium, such as greater than 3, 4, 5 or 6 mg/mL)	Compound	dominant metabolite of baclofen, reported share [1] [%]	biological activity of the metabolite [2]
–	–	O=C(O)CC(CO)c1ccc(Cl)cc1 (stereo not shown) [M1, 3-(4-chlorophenyl)-4-hydroxybutyric acid]	15	inactive
increased	greater than 2 mg/mL	NCC(CC(=O)O)c1ccc(Cl)cc1 (stereo not shown) [baclofen, 4-amino-3-(4-chlorophenyl)butanoic acid]	–	–
